For assay [1], the system named is TNF. Nature of the assay: TNF IC50 (column of Table 1; method not shown). In kind it is cell-based.
For assay [2], the target named is T1, SIRT1 (Homo sapiens, UniProt Q96EB6).
T1 sequence (Q96EB6 1-747): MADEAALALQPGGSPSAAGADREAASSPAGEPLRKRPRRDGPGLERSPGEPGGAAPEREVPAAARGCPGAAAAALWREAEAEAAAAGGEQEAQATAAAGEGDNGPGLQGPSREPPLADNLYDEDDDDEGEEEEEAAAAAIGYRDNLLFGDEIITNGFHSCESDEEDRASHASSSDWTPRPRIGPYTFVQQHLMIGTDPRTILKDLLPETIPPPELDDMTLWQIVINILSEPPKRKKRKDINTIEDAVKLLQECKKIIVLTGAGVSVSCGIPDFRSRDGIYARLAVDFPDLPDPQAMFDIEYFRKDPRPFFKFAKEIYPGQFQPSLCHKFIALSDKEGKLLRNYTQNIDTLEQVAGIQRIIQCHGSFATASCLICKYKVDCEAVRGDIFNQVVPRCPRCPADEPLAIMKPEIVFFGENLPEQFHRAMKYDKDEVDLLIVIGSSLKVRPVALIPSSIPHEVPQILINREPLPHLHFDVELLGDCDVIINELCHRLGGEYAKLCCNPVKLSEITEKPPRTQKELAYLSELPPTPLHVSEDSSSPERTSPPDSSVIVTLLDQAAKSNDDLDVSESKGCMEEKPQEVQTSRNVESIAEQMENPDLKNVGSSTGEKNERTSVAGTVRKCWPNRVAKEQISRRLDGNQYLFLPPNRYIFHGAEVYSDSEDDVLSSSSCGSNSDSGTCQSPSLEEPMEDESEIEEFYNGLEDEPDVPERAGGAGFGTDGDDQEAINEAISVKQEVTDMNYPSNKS
As to the kind of experiment: Mass spectrometry based assay to identify modulators of SIRT1 activity (deacetylation of p53-based acetylated peptide substrate). The format is biochemical. To be noted: for Emax: 25 min, read-out: % FOLD ACT. (percent maximum fold activation); for Emax / EC1.5: SIRT1 activation. The method, boiled down:
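His-tagged human SIRT1 (10 nM, E. coli) incubated 25 min at 25 °C with […] p53-derived acetylated 5TMR peptide and 120 μM βNAD+ in pH 8 Tris-acetate buffer, then formic acid-stopped. Mass spectrometry quantifies acetylated vs deacetylated peptide; nicotinamide and DMSO controls.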

What is called IC50 is the concentration at which inhibition is half-maximal. A low value points to greater potency in that assay.

Turning to `Cc1cc(C)nc(NC(=O)N2CCOc3ccc(-c4cccc(C(F)(F)F)c4)nc32)c1` [Compound 511], the IC50 in assay [1] was at least 20 µM. Also, in assay [2], the Emax is above 200% and the EC1.5 entry is on record as “A (EC1.5<1.0 μM)”.

For the compound `Cc1csc(NC(=O)N2CCCOc3ccc(-c4cccc(Cl)c4)nc32)n1` [Compound 607], the half-inhibitory concentration (IC50) in assay [1] was at least 20 µM. Further, in assay [2], the Emax was above 200% and the EC1.5 result is on record as “A (EC1.5<1.0 μM)”.

Consider `O=C(Nc1cccc(CN2CCOCC2)n1)N1CCOc2ccc(-c3cccc(C(F)(F)F)c3)nc21` [Compound 510], for which the IC50 in assay [1] was at least 20 µM. Besides, in assay [2], the Emax is above 200% and the EC1.5 entry is “A (EC1.5<1.0 μM)”.

Regarding `Cc1cc(-c2cccc(Cl)c2)nc2c1OCCN2C(=O)Nc1ccncc1F` [Compound 687], in assay [2], the Emax was above 200% and the EC1.5 result is “A (EC1.5<1.0 μM)”.

For the compound `O=C(Nc1ccncn1)N1CCCOc2ccc(-c3cccc(Cl)c3)nc21` [Compound 625], in assay [2], the Emax was above 200% and the EC1.5 entry is on record as “A (EC1.5<1.0 μM)”.

Take `Cc1ccc(NC(=O)N2CCOc3ccc(-c4cccc(C(F)(F)F)c4)nc32)cn1` [Compound 554]: in assay [2], the Emax is above 200% and the EC1.5 entry is recorded as “A (EC1.5<1.0 μM)”.

Regarding `O=C(Nc1ccncc1F)N1CCCCc2ccc(-c3cccc(Cl)c3)nc21` [Compound 734], in assay [2], the EC1.5 (concentration giving 1.5-fold activation) is 1 to 25 µM and the Emax is above 200%.

Consider `O=C(Nc1ccncc1)N1CCOc2cnc(-c3cccc(Cl)c3)nc21` [Compound 720], for which, in assay [2], the EC1.5 (concentration giving 1.5-fold activation) is 1 to 25 µM and the Emax is at most 200%.

In the case of `O=C(Nc1ccncc1F)N1CCC(F)(F)c2ccc(-c3cccc(C(F)(F)F)c3)nc21` [Compound 746], in assay [2], the EC1.5 (concentration giving 1.5-fold activation) was in the range of 1 to 25 µM and the Emax is at most 200%.

As for `O=C(Nc1ccncc1)N1CCCOc2ccc(-c3cccc(C(F)(F)F)c3)nc21` [Compound 558, N-(pyridin-4-yl)-7-(3-(trifluoromethyl)phenyl)-3,4-dihydropyrido[3,2-b][1,4]oxazepine-5(2H)-carboxamide], in assay [2], the Emax was above 200% and the EC1.5 entry is listed as “B (EC1.5 1-25 μM)”.

Turning to `O=C(Oc1cccc(OCC(O)CO)c1)N1CCCc2ccc(-c3cccc(C(F)(F)F)c3)nc21` (stereo not drawn) [Compound 641, 3-(2,3-dihydroxypropoxy)phenyl 7-(3-(trifluoromethyl)phenyl)-3,4-dihydro-1,8-naphthyridine-1(2H)-carboxylate], in assay [2], the Emax was at most 200% and the EC1.5 entry is “B (EC1.5 1-25 μM)”.

As for `CN1C(=O)CN(C(=O)Nc2ccncc2)c2nc(-c3cccc(C(F)(F)F)c3)ccc21` [Compound 525], in assay [2], the Emax is above 200% and the EC1.5 result is “B (EC1.5 1-25 μM)”.

On to `O=C(Nc1ncccn1)N1CCCc2ccc(-c3cccc(F)c3)nc21` [Compound 665], for which, in assay [2], the Emax is above 200% and the EC1.5 entry was “B (EC1.5 1-25 μM)”.

`Cc1noc(NC(=O)N2CCOc3ccc(-c4cccc(C(F)(F)F)c4)nc32)c1C` [Compound 509]: in assay [2], the Emax is above 200% and the EC1.5 result is “B (EC1.5 1-25 μM)”.

Take `O=C(Nc1nccs1)N1CCOc2ccc(-c3cccc(C(F)(F)F)c3)nc21` [Compound 500, N-(thiazol-2-yl)-6-(3-(trifluoromethyl)phenyl)-2H-pyrido[3,2-b][1,4]oxazine-4(3H)-carboxamide]: in assay [2], the Emax was above 200% and the EC1.5 result is recorded as “A (EC1.5<1.0 μM)”.

Regarding `Cc1cc(-c2cccc(Cl)c2)nc2c1OCCN2C(=O)Nc1ccncc1` [Compound 686], in assay [2], the Emax was above 200% and the EC1.5 result is reported as “A (EC1.5<1.0 μM)”.

On to `Cc1cc(NC(=O)N2CCOc3c(N4CCOCC4)nc(-c4cccc(F)c4)nc32)cc(C)n1` [Compound 739], for which, in assay [2], the EC1.5 (concentration giving 1.5-fold activation) fell in the range of 1 to 25 µM and the Emax is at most 200%.

Consider `Cc1cc(NC(=O)N2CCOc3c(N4CCCC4)nc(-c4cccc(F)c4)nc32)cc(C)n1` [Compound 718], for which, in assay [2], the EC1.5 (concentration giving 1.5-fold activation) lay in the range of 1 to 25 µM and the Emax is at most 200%.

Consider `Cc1csc(NC(=O)N2CCCC(F)(F)c3ccc(-c4cccc(Cl)c4)nc32)n1` [Compound 779], for which, in assay [2], the EC1.5 (concentration giving 1.5-fold activation) was above 25 µM and the Emax is at most 200%.

On to `O=C1NCc2cccc(NC(=O)N3CCCOc4ccc(-c5cccc(Cl)c5)nc43)c21` [Compound 885], for which, in assay [2], the EC1.5 (concentration giving 1.5-fold activation) was 1 to 25 µM and the Emax was at most 200%.

For `Cc1cccc(NC(=O)N2CCCCc3ccc(-c4cccc(Cl)c4)nc32)n1` [Compound 733], in assay [2], the EC1.5 (concentration giving 1.5-fold activation) was above 25 µM and the Emax is at most 200%.

For the compound `CN1CCN(C(=O)NC2CCOC2=O)c2nc(-c3cccc(C(F)(F)F)c3)ccc21` (stereo not drawn) [Compound 540], in assay [2], the Emax is at most 200% and the EC1.5 entry is recorded as “C (EC1.5>25 μM)”.

On to `CN1C(=O)CN(C(=O)Nc2ncn[nH]2)c2nc(-c3cccc(C(F)(F)F)c3)ccc21` [Compound 524], for which, in assay [2], the Emax is at most 200% and the EC1.5 result is listed as “C (EC1.5>25 μM)”.

Turning to `O=C(Nc1cc(C(F)(F)F)ccn1)N1CCOc2ccc(-c3cccc(C(F)(F)F)c3)nc21` [Compound 565], in assay [2], the Emax is at most 200% and the EC1.5 entry was “B (EC1.5 1-25 μM)”.

On to `CC1(C)CN(C(=O)Nc2cncc(F)c2)c2nc(-c3cccc(Cl)c3)ccc2O1` [Compound 601], for which, in assay [2], the Emax is above 200% and the EC1.5 entry was “A (EC1.5<1.0 μM)”.

For the compound `O=C(Nc1ccncc1)N1CCOc2ccc(-c3cccc(F)c3)nc21` [Compound 542], in assay [2], the Emax was above 200% and the EC1.5 entry is reported as “B (EC1.5 1-25 μM)”.

`O=C(Nc1ccncc1F)N1CCCOc2ccc(-c3cccc(Cl)c3)nc21` [Compound 769]: in assay [2], the EC1.5 (concentration giving 1.5-fold activation) fell in the range of 1 to 25 µM and the Emax was above 200%.

Regarding `CN1C(=O)CN(C(=O)Nc2ccncn2)c2nc(-c3cccc(C(F)(F)F)c3)ccc21` [Compound 526], in assay [2], the Emax is above 200% and the EC1.5 entry is on record as “B (EC1.5 1-25 μM)”.

Regarding `Cc1cc(NC(=O)N2CCOc3c(N(C)C)nc(-c4cccc(F)c4)nc32)cc(C)n1` [Compound 727], in assay [2], the EC1.5 (concentration giving 1.5-fold activation) was below 1 µM and the Emax was at most 200%.

Regarding `CCN1CCCN(C(=O)Nc2ccccn2)c2nc(-c3cccc(Cl)c3)ccc21` [Compound 790], in assay [2], the EC1.5 (concentration giving 1.5-fold activation) is above 25 µM and the Emax was at most 200%.

For the compound `CN(C)Cc1cccc(-c2ccc3c(n2)N(C(=O)Nc2cccnc2)CC(C)(C)O3)c1` [Compound 677, 6-(3-((dimethylamino)methyl)phenyl)-2,2-dimethyl-N-(pyridin-3-yl)-2H-pyrido[3,2-b][1,4]oxazine-4(3H)-carboxamide], in assay [2], the Emax was above 200% and the EC1.5 result is reported as “B (EC1.5 1-25 μM)”.

For the compound `O=C(Nc1ccncc1)N1CCOc2cnc(-c3cccc(N4CCCC4)c3)nc21` [Compound 722], in assay [2], the EC1.5 (concentration giving 1.5-fold activation) was in the range of 1 to 25 µM and the Emax is above 200%.

As for `O=C(c1ccnc(OCC(O)CO)c1)N1CCOc2ccc(-c3cccc(C(F)(F)F)c3)nc21` (stereo not drawn) [Compound 518, (2-(2,3-dihydroxypropoxy)pyridin-4-yl)(6-(3-(trifluoromethyl)phenyl)-2H-pyrido[3,2-b][1,4]oxazin-4(3H)-yl)methanone], in assay [2], the Emax was at most 200% and the EC1.5 entry is “B (EC1.5 1-25 μM)”.

The values are drawn from patent US9556201B2, “Bicyclic pyridines and analogs as sirtuin modulators” (GLAXOSMITHKLINE LLC, priority 2009, dated 2017).
